This note sets out measurements from PubChem BioAssay (NCI).

Among the test systems are CAKI-1 renal; HCT-116 colon; HCT-15 colon; HL-60(TB) leukemia; MCF7 breast; NCI-H460 lung; OVCAR-5 ovarian; RPMI-8226 leukemia; SF-295 CNS; SK-MEL-5 melanoma; SNB-19 CNS; SR leukemia.
Experiment in all cases: NCI anticancer screen, dose series, 48 h

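Compound exposure: 48 hours, 5 concentrations, 96-well plates. GI50 marks 50% less growth. TGI denotes the concentration required for complete inhibition of growth.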

Turning to `Cc1cc2c(cc1C)[n+](=O)c(C#N)c(Cl)n2[O-]`, the TGI with CAKI-1 renal stood at 19.7 µM; with HCT-116 colon, 32 µM; in the assay with HCT-15 colon, 16.7 µM; with HL-60(TB) leukemia, 84.3 µM; in the assay with MCF7 breast it was 27.5 µM; in the assay with NCI-H460 lung it was 24.2 µM. The TGI is 25.8 µM in the assay on OVCAR-5 ovarian; 55.6 µM in the assay with RPMI-8226 leukemia; greater than 100 µM in the assay with SF-295 CNS; 29 µM with SK-MEL-5 melanoma; greater than 100 µM in the assay with SNB-19 CNS; greater than 100 µM in the assay with SR leukemia.

Consider `Nc1nncc2c1ccn2C1OC(CO)C(O)C1O` (stereo unspecified), for which the TGI in the assay on HCT-116 colon, in the assay with HCT-15 colon, in the assay with HL-60(TB) leukemia, in the assay on NCI-H460 lung, in the assay on OVCAR-5 ovarian and with RPMI-8226 leukemia was greater than 100 µM each time. Also, the TGI with SF-295 CNS, with SK-MEL-5 melanoma, in the assay on SNB-19 CNS and in the assay on SR leukemia was greater than 100 µM each time.

As to `O=C(CCl)NC(Cc1ccc(F)cc1)C(=O)O` (stereo unspecified), the TGI in the assay on CAKI-1 renal, in the assay with HCT-116 colon, with HCT-15 colon, in the assay on HL-60(TB) leukemia, in the assay on MCF7 breast and in the assay with NCI-H460 lung was greater than 100 µM in each case. Besides, the TGI with OVCAR-5 ovarian, in the assay on RPMI-8226 leukemia, in the assay with SF-295 CNS, with SK-MEL-5 melanoma and in the assay with SNB-19 CNS was greater than 100 µM each time.

Turning to `CCC1CN2CCC1CC2` (stereo unspecified), the TGI in the assay with HCT-116 colon, in the assay with HCT-15 colon, in the assay on HL-60(TB) leukemia, with MCF7 breast, in the assay with NCI-H460 lung and in the assay on OVCAR-5 ovarian was greater than 100 µM throughout. Also, the TGI in the assay on RPMI-8226 leukemia, in the assay with SF-295 CNS, in the assay with SK-MEL-5 melanoma and with SNB-19 CNS was greater than 100 µM throughout.

Take `N=c1nc2n(cc1F)[C@@H]1O[C@H](CO)[C@@H](O)[C@@H]1O2`: the TGI with CAKI-1 renal is greater than 100 µM; in the assay with HCT-116 colon, greater than 100 µM; with HCT-15 colon, greater than 100 µM; in the assay with HL-60(TB) leukemia, greater than 40.9 µM; in the assay on MCF7 breast it was greater than 100 µM; with NCI-H460 lung, greater than 36 µM. For the same molecule, the TGI with OVCAR-5 ovarian was greater than 100 µM; in the assay on RPMI-8226 leukemia it was greater than 100 µM; with SF-295 CNS it was greater than 100 µM; with SK-MEL-5 melanoma it was greater than 74.7 µM; in the assay with SNB-19 CNS it was greater than 100 µM; in the assay on SR leukemia, greater than 73.7 µM.

For the molecule `C=C1CC[C@@H](Br)C(C)(C)[C@]12CCC(C)(O)C(Cl)C2` (stereo partly specified), the TGI in the assay on CAKI-1 renal came out at 32 µM; with HCT-116 colon, 32.3 µM; in the assay on HCT-15 colon, 30.4 µM; in the assay with HL-60(TB) leukemia it was 42.2 µM; with NCI-H460 lung, 32.1 µM; in the assay with OVCAR-5 ovarian, 36.9 µM. The TGI with RPMI-8226 leukemia turned out to be 40.2 µM; with SF-295 CNS, 43.1 µM; in the assay on SK-MEL-5 melanoma, 35.7 µM; in the assay with SNB-19 CNS, 43.4 µM.

Take `Oc1c2c(c3c4c1N=CC=4CCN=3)-c1c(Br)cc(Br)cc1CCN2`: the TGI is 51.1 µM in the assay with CAKI-1 renal; 4.47 µM in the assay on HCT-116 colon; 15.4 µM in the assay with HCT-15 colon; 4.09 µM in the assay on HL-60(TB) leukemia; 4.16 µM with MCF7 breast; 12 µM in the assay with NCI-H460 lung. The TGI with OVCAR-5 ovarian was 8.66 µM; in the assay on RPMI-8226 leukemia, 17.5 µM; with SF-295 CNS it was 11 µM; in the assay with SK-MEL-5 melanoma, 3.38 µM; in the assay on SNB-19 CNS, greater than 35.6 µM.

On to `CC(=O)OC/C=C/Cn1ncc(=O)[nH]c1=O`, for which the TGI with CAKI-1 renal, with HCT-15 colon, with HL-60(TB) leukemia, in the assay with MCF7 breast, in the assay with NCI-H460 lung and with OVCAR-5 ovarian was greater than 100 µM each time. Moreover, the TGI with RPMI-8226 leukemia, in the assay on SK-MEL-5 melanoma and in the assay with SNB-19 CNS was greater than 100 µM in each case.

In the case of `CC[C@H](Nc1nc(N)nc(C)c1C#N)c1nc2cccc(NCc3ccc(C(=O)NO)cc3)c2c(=O)n1-c1ccccc1`, the GI50 in the assay on HCT-116 colon was 1.82 µM; with HCT-15 colon, 2.29 µM; in the assay on HL-60(TB) leukemia, 3.04 µM; in the assay on MCF7 breast, 2.01 µM; in the assay on NCI-H460 lung, 1.85 µM; with OVCAR-5 ovarian, 1.49 µM. The GI50 with RPMI-8226 leukemia is 2.27 µM; in the assay on SR leukemia, 0.697 µM. For the same molecule, the TGI in the assay with HCT-116 colon is 4.34 µM; with HCT-15 colon, 6.25 µM; with HL-60(TB) leukemia, greater than 100 µM; with MCF7 breast, 9.06 µM; in the assay with NCI-H460 lung it was 4.76 µM; in the assay on OVCAR-5 ovarian, 4.01 µM. Further, the TGI was 9.78 µM in the assay on RPMI-8226 leukemia and greater than 100 µM with SR leukemia.

As for `CCOC(=O)[C@H]1Nc2c(cccc2[N+](=O)[O-])[C@H]2OCC[C@@H]12`, the TGI in the assay with CAKI-1 renal, with HCT-116 colon, in the assay on HCT-15 colon, in the assay on NCI-H460 lung, in the assay on OVCAR-5 ovarian and in the assay on RPMI-8226 leukemia was greater than 100 µM throughout. Also, the TGI in the assay with SF-295 CNS, with SK-MEL-5 melanoma, in the assay on SNB-19 CNS and in the assay on SR leukemia was greater than 100 µM throughout.
